pIC50: −log10 of the molar value. Where two headings read alike, the source gives them in different places.
Experiments:
MDA-MB-231/ATCC = test: NCI in vitro anti-cancer activity, Breast Cancer; assay type: cell-based
SN12C = test: NCI in vitro anti-cancer activity, Renal Cancer; assay type: cell-based
MDA-MB-435 = test: NCI in vitro anti-cancer activity, Breast Cancer; assay type: cell-based
HS 578T = test: NCI in vitro anti-cancer activity, Breast Cancer; assay type: cell-based
Pc DHFR = molecular target: T1, Pc DHFR (Pneumocystis carinii, UniProt P16184); test: biochemical
T1 sequence (P16184 1-206): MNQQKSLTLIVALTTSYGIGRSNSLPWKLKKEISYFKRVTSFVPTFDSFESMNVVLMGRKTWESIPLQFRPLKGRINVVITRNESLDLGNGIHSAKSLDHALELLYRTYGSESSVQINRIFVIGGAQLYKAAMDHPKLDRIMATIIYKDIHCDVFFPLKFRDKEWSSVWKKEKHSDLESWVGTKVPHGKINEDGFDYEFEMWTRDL

IGROV1 = test: NCI in vitro anti-cancer activity, Ovarian Cancer; assay type: cell-based
HOP-92 = assay type: cell-based
HCT-116 = test: NCI in vitro anti-cancer activity, Colon Cancer; assay type: cell-based
RXF 393 = test: NCI in vitro anti-cancer activity, Renal Cancer; assay type: cell-based
SK-MEL-2 = test: NCI in vitro anti-cancer activity, Melanoma; assay type: cell-based
LOX IMVI = test: NCI in vitro anti-cancer activity, Melanoma; assay type: cell-based
SF-295 = test: NCI in vitro anti-cancer activity, CNS Cancer; assay type: cell-based
OVCAR-4 = test: NCI in vitro anti-cancer activity, Ovarian Cancer; assay type: cell-based
BT-549 = test: NCI in vitro anti-cancer activity, Breast Cancer; assay type: cell-based
U251 = test: NCI in vitro anti-cancer activity, CNS Cancer; assay type: cell-based; details: Homo sapiens, U-251; U251, CNS Cancer
MCF7 = test: NCI in vitro anti-cancer activity, Breast Cancer; assay type: cell-based
DU-145 = test: NCI in vitro anti-cancer activity, Prostate Cancer; assay type: cell-based
Tg DHFR = molecular target: T2, Tg DHFR (Toxoplasma gondii, UniProt Q07422); test: biochemical; assay type: biochemical
T2 sequence (Q07422 1-610): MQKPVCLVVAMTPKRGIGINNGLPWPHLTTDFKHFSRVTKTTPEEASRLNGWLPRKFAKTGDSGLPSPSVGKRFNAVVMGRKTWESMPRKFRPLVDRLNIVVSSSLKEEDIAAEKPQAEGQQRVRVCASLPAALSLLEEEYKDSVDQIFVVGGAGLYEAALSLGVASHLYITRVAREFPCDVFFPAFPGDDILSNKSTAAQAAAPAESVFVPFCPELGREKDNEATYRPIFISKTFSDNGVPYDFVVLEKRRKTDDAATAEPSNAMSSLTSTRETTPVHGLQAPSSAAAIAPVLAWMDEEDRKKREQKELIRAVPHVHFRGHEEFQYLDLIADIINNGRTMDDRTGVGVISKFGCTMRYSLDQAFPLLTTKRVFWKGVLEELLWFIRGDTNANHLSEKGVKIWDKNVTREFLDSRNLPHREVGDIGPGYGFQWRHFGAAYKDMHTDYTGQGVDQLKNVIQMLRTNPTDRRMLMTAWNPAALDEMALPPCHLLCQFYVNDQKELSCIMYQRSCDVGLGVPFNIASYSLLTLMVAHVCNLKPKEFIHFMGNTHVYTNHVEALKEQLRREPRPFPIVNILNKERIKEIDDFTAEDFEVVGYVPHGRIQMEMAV
Experimental: The selectivity ratio is a measure of the selectivity of a compound for Pc DHFR or Tg DHFR and is expressed as the IC50 value of the DHFR from rate liver (RL) divided by the IC50 value of either the Pc DHFR or the Tg DHFR, depending on which organism the compounds are being tested against. For example, the selectivity ratio of a compound is calculated by the following formula: [formula]

SK-OV-3 = test: NCI in vitro anti-cancer activity, Ovarian Cancer; assay type: cell-based
OVCAR-8 = test: NCI in vitro anti-cancer activity, Ovarian Cancer; assay type: cell-based
NCI-H522 = assay type: cell-based
NCI-H23 = assay type: cell-based
HT29 = test: NCI in vitro anti-cancer activity, Colon Cancer; assay type: cell-based
COLO 205 = test: NCI in vitro anti-cancer activity, Colon Cancer; assay type: cell-based
PC-3 = test: NCI in vitro anti-cancer activity, Prostate Cancer; assay type: cell-based
ACHN = test: NCI in vitro anti-cancer activity, Renal Cancer; assay type: cell-based
MDA-N = test: NCI in vitro anti-cancer activity, Breast Cancer; assay type: cell-based
M14 = test: NCI in vitro anti-cancer activity, Melanoma; assay type: cell-based
UACC-62 = test: NCI in vitro anti-cancer activity, Melanoma; assay type: cell-based
NCI-H226 = assay type: cell-based
A498 = test: NCI in vitro anti-cancer activity, renal cancer; details: Table 29, Renal Cancer, A498
Excerpt: The compounds identified below were further tested for their in vitro anti-cancer activity by the National Cancer Institute.

With `Nc1nc(N)c2c(CNc3ccc(C(=O)N[C@@H](CCC(=O)O)C(=O)O)cc3)c[nH]c2n1` [Compound 9] as the compound, how does the GI50 (MDA-MB-231/ATCC; Homo sapiens, Breast Cancer) read?
The GI50 was greater than 100 µM.

And the GI50 (SN12C; Homo sapiens, Renal Cancer)?
The GI50 was less than 0.01 µM.

And the GI50 (MDA-MB-435; Homo sapiens)?
Its GI50 is 0.687 µM.

And the GI50 (HS 578T; Homo sapiens, Breast Cancer)?
The GI50 was greater than 100 µM.

What about the pIC50 (Pc DHFR) of the same compound?
The pIC50 was 7.42.

And the GI50 (IGROV1; Homo sapiens, IGROV-1, IGROV1, Ovarian Cancer)?
The GI50 was less than 0.01 µM.

And the GI50 (HOP-92; Homo sapiens, HOP-92, Non-Small Cell Lung Cancer)?
The GI50 was 8.4 µM.

And the GI50 (HCT-116; Homo sapiens)?
Its GI50 is less than 0.01 µM.

And the GI50 (RXF 393; Homo sapiens, RXF 393, Renal Cancer)?
The GI50 was greater than 100 µM.

What about the GI50 (SK-MEL-2; Homo sapiens, SK-MEL-2, Melanoma) of the same compound?
The GI50 was greater than 100 µM.

What about the GI50 (LOX IMVI; Homo sapiens, Melanoma) of the same compound?
Its GI50 is less than 0.01 µM.

What about the GI50 (SF-295; Homo sapiens, SF-295, CNS Cancer) of the same compound?
The GI50 was less than 0.01 µM.

What about the GI50 (OVCAR-4; Homo sapiens, OVCAR-4, Ovarian Cancer) of the same compound?
Its GI50 is greater than 100 µM.

What about the GI50 (BT-549; Homo sapiens, BT-549, Breast Cancer) of the same compound?
The GI50 was greater than 100 µM.

And the GI50 (U251)?
Its GI50 is less than 10 nM.

What about the GI50 (MCF7; Homo sapiens, MCF7, Breast Cancer) of the same compound?
Its GI50 is less than 0.01 µM.

What about the GI50 (DU-145; Homo sapiens, DU-145, Prostate Cancer) of the same compound?
Its GI50 is 10.9 nM.

And the pIC50 (Tg DHFR)?
The pIC50 was 6.68.

What about the GI50 (SK-OV-3; Homo sapiens, SK-OV-3, Ovarian Cancer) of the same compound?
The GI50 was greater than 100 µM.

And the GI50 (OVCAR-8; Homo sapiens, OVCAR-8, Ovarian Cancer)?
The GI50 was less than 0.01 µM.

And the GI50 (NCI-H522; Homo sapiens, NCI-H522, Non-Small Cell Lung Cancer)?
The GI50 was greater than 100 µM.

What about the GI50 (NCI-H23; Homo sapiens, NCI-H23, Non-Small Cell Lung Cancer) of the same compound?
The GI50 was 0.0575 µM.

What about the GI50 (HT29; Homo sapiens, HT-29, HT29, Colon Cancer) of the same compound?
Its GI50 is less than 0.01 µM.

And the GI50 (COLO 205; Homo sapiens, COLO 205, Colon Cancer)?
Its GI50 is greater than 100 µM.

What about the GI50 (PC-3; Homo sapiens, PC-3, Prostate Cancer) of the same compound?
Its GI50 is greater than 100 µM.

What about the GI50 (ACHN; Homo sapiens, Renal Cancer) of the same compound?
Its GI50 is less than 0.01 µM.

What about the GI50 (MDA-N; Homo sapiens, Breast Cancer) of the same compound?
The GI50 was less than 0.01 µM.

And the GI50 (M14; Homo sapiens, M14, Melanoma)?
The GI50 was less than 0.01 µM.

What about the GI50 (UACC-62; Homo sapiens, UACC-62, Melanoma) of the same compound?
The GI50 was less than 0.01 µM.

And the GI50 (NCI-H226; Homo sapiens, NCI-H226, Non-Small Cell Lung Cancer)?
The GI50 was greater than 100 µM.

What does the source list for `COc1ccc(CCc2cn(Cc3ccccc3)c3nc(N)nc(C)c23)cc1` [Compound 113-118]?
GI50 (MDA-MB-231/ATCC; Table 29, Breast Cancer): < 100 µM; GI50 (SN12C; Table 29, Renal Cancer): > 100 µM; GI50 (MDA-MB-435; Table 29, Breast Cancer): 95.4 µM; GI50 (HS 578T; Table 29, Breast Cancer): < 100 µM; % inhibition Pc DHFR (Pc DHFR; @ 31 μM): 60% @; GI50 (IGROV1; Table 29, Ovarian Cancer, IGROV1): 68.2 µM; GI50 (HOP-92; Table 29, Non-Small Cell Lung Cancer, HOP-92): 31 µM; GI50 (HCT-116; Table 29, Colon Cancer): 48.3 µM; GI50 (RXF 393; Table 29, Renal Cancer, RXF 393): 94.7 µM; GI50 (SK-MEL-2; Table 29, Melanoma, SK-MEL-2): > 100 µM; GI50 (LOX IMVI; Table 29, Melanoma): 50 µM; GI50 (SF-295; Table 29, CNS Cancer, SF-295): 79.3 µM; GI50 (OVCAR-4; Table 29, Ovarian Cancer, OVCAR-4): 80.1 µM; GI50 (BT-549; Table 29, Breast Cancer, BT-549): 40.9 µM; GI50 (MCF7; Table 29, Breast Cancer, MCF7): 29.6 µM; GI50 (DU-145; Table 29, Prostate Cancer, DU-145): > 100000 nM; % inhibition Tg DHFR (Tg DHFR; @ 31 μM): 15% @ 31 μM; GI50 (SK-OV-3; Table 29, Ovarian Cancer, SK-OV-3): > 100 µM; GI50 (OVCAR-8; Table 29, Ovarian Cancer, OVCAR-8): 52.5 µM; GI50 (NCI-H522; Table 29, Non-Small Cell Lung Cancer, NCI-H522): 29.1 µM; GI50 (NCI-H23; Table 29, Non-Small Cell Lung Cancer, NCI-H23): 97.3 µM; GI50 (HT29; Table 29, Colon Cancer, HT29): 48.4 µM; GI50 (COLO 205; Table 29, Colon Cancer, COLO 205): 38.2 µM; GI50 (A498): 14.2 µM; GI50 (PC-3; Table 29, Prostate Cancer, PC-3): 64 µM; GI50 (ACHN; Table 29, Renal Cancer): 34.8 µM; GI50 (MDA-N; Table 29, Breast Cancer): 78.3 µM; GI50 (M14; Table 29, Melanoma, M14): 93.6 µM; GI50 (UACC-62; Table 29, Melanoma, UACC-62): 80 µM; GI50 (NCI-H226; Table 29, Non-Small Cell Lung Cancer, NCI-H226): > 100 µM

From patent US6962920B2, “Pyrimidine derivatives and methods of making and using these derivatives” (Duquesne University of the Holy Ghost, priority 1992, dated 2005)
